Series [1] concerns P. falciparum chloroquine-resistant Dd2 strain. In words: Antiplasmodial activity, SYBR Green I fluorescence-based assay. Type of series: cell-based. The conditions noted are these: for Selectivity: cytotoxicity IC50 (NIH 3T3) over Dd2 IC50. Here is the method:
Fractions were derived from 20 different marine species. […] All fractions were then analyzed by LC-MS to identify active extracts with the greatest potential for novelty.
(§1) Antiplasmodial activity was tested in P falciparum chloroquine resistant Dd2, and the cytotoxicity was assessed in NIH 3T3 fibroblasts cells.
(§2) Asynchronous cultures were exposed to different concentrations of inhibitor for 72 hrs. […] The cytotoxicity against NIH 3T3 fibroblasts was evaluated using an MTS assay [(3-(4,5-dimethylthiazol-2-yl)-5-(3-carboxymethoxyphenyl)-2-(4-sulfophenyl)-2H-tetrazolium), CellTiter 96® Aqueous non-radioactive cell proliferation assay, Promega

Another series has as its system NIH 3T3 fibroblasts. Put plainly: Cytotoxicity against NIH 3T3 fibroblasts (MTS assay). The class given is cell-based. The conditions noted are these: Table 2, MTS assay. Here is the method:
as §1, §2
In general terms: Tetrazolium dyes change colour on reduction, which living cells bring about.

The conditions of series [2]: reported in the past, Gutierrez et. al. Pharmaceutical Biol. 2005, 43, 762-765; cited from earlier work.
A short description of series [3]: Cytotoxicity against NIH 3T3 fibroblasts (MTS assay). The class given is cell-based. As to conditions: mouse, Table 1, NIH 3T3 fibroblasts cells. Here is the method:
as §1, §2

For series [4] the following is noted: has been shown, no source given; cited from earlier work.
Setting [5] is: Plasmodium falciparum, Table 2, chloroquine-resistant Dd2 strain, asynchronous cultures, 72 hrs, read-out: P. falciparum IC50.
Where [6] appears, read: Plasmodium falciparum, Table 1, P falciparum chloroquine resistant Dd2, read-out: Dd2 IC50.
Setting [7] is: Table 2, chloroquine-resistant Dd2 strain, asynchronous cultures, 72 hrs, read-out: P. falciparum IC50.

Like-named read-outs stand apart in the source and are kept apart here.

Broadly, the IC50 is the concentration that inhibits the measured activity by half. Regarding `NCC(c1c[nH]c2ccccc12)c1c[nH]c2ccccc12` [2,2 bisindol-3-ylethyl amine 9, 2,2 bisindol-3-ylethyl amine], the IC50 came out at 6.5 µM in series [1] (setting [5]) and 11.5 µM with NIH 3T3 fibroblasts (Mus musculus, NIH3T3).
With `COC1=C(Br)[C@H](O)[C@](O)(CC#N)C=C1Br` [Aeroplysin-1, aeroplysinin-1], the anti-malarial activity entry in series [2] was “anti-malarial activity”.
Turning to `C/C1=C/C(=O)C/C(C)=C/CC(C)(C)/C=C/C(=O)[C@@H](C)CCC1` [Compound 2], the values for the IC50 in series [1] (setting [6]) and in series [3] (NIH 3T3 fibroblast cells) were 1.56 µM and 21.8 µM, respectively. Further, the Selectivity in series [1] (Table 1) is given as 13.94.
As to `C/C1=C\CC(C)(C)/C=C/C(=O)[C@@H](C)CCC[C@H](C)CC(=O)C1` [Compound 3], the IC50 in series [1] (Plasmodium falciparum, Dd2 strain printed for compound 3 only, strain not printed for 4 and HB39.A10, read-out: IC50) came to 2.5 µM; in series [1] (setting [6]), 1.77 µM; in series [3] (NIH 3T3 fibroblast cells), 20 µM. Further, the Selectivity in series [1] (Table 1) is given as 11.34.
`COc1ccc(/C=C/CCCCC(C)[C@H](O)[C@@H](O)C2NC(=O)C[C@@H](O)CNC(=O)CNC(=O)[C@@H](Cc3c(C(=O)O)[nH]c4ccccc34)NC(=O)CN(C)C(=O)C[C@@]3(O)NC(=O)[C@H](O)C3NC(=O)[C@H]2O)cc1` (stereo partly shown) [Compound 4, microsclerodermin A]: the IC50 in series [1] (Plasmodium falciparum, DD2) was 0.73 µM; in series [1] (Plasmodium falciparum, DD2, read-out: Dd2 IC50), 0.075 µM; in series [3] it was 3.53 µM. Besides, in series [1] (Table 1), the Selectivity is given as 47.07.
With `CCC(=O)NCCc1c2c3c(ccnc3c3ncsc13)-c1ccccc1N2` [Compound 5, dercitamide], the IC50 amounted to 2.3 µM in series [1] (Dd2 strain printed for compound 3 only, strain not printed for 4 and HB39.A10, read-out: IC50); 1.05 µM in series [1] (setting [6]); 14.8 µM in series [3] (NIH 3T3 fibroblast cells). The same molecule returned a Selectivity in series [1] (Table 1) of 14.13. Moreover, the cytotoxicity result in series [4] is listed as “very moderate cytotoxicity”.
On to `CN1CC(c2c[nH]c3c(Br)c(Br)cc(O)c23)NCC1c1c[nH]c2cc(Br)ccc12` (stereo not shown) [Dragmacidin 6, Dragmacidin], for which the IC50 in series [1] (setting [7]) came out at 6.4 µM; with NIH 3T3 fibroblasts it was 7.8 µM.
For `NC(N)=NCCSc1nc(-c2c[nH]c3cc(Br)ccc23)cnc1-c1c[nH]c2cc(Br)ccc12` [Dragmacidin G 12, Dragmacidin G], the values for the IC50 (in series [1] (setting [7]); with NIH 3T3 fibroblasts) were 6.4 µM and 7.8 µM, respectively.
For the molecule `O=C1N[C@@H](c2c[nH]c3cc(Br)ccc23)CN=C1c1c[nH]c2cc(Br)ccc12` [Hamacanthin A 7, Hamacanthin A], the IC50 in series [1] (setting [7]) turned out to be 3.2 µM; with NIH 3T3 fibroblasts it was 30.4 µM.
For `O=C1NC[C@H](c2c[nH]c3cc(Br)ccc23)N=C1c1c[nH]c2cc(Br)ccc12` [Hamacanthin B 8, Hamacanthin B], in that order: greater than 20.6 µM and 38.6 µM.
Turning to `Brc1ccc2c(-c3cnc(-c4c[nH]c5cc(Br)ccc45)[nH]3)c[nH]c2c1` [Nortopsentin A, reference compound], the IC50 in series [1] (setting [5]) was 0.6 µM; in the series with NIH 3T3 fibroblasts (Mus musculus, NIH3T3), 6 µM.
On to Dragmacidin D [Dragmacidin D 11], for which the IC50 was 5.2 µM in series [1] (setting [7]) and 27.7 µM in the series with NIH 3T3 fibroblasts.

The values are drawn from US9181251B2, “Anti-malarial compounds from marine natural products” (University of Central Florida Research Foundation, Inc., priority 2012, dated 2015).
